Assay results taken from patent US9371336B2, “Compounds for treating spinal muscular atrophy” (PTC Therapeutics Inc., priority 2012, dated 2016).

Experiments:
Smn protein = Smn protein assay (HTRF) in cultured cells (SMA patient fibroblasts GM03813); type: cell-based, human; details: 48 hours; for EC1.5x for Smn protein expression: SMA patient fibroblast cells (GM03813), HTRF, 7-point concentration data, concentration producing 1.5 times Smn protein vs DMSO vehicle control; for maximum fold (Fold) increase of Smn protein: SMA patient fibroblast cells, 7-point concentration curve, relative to vehicle control
Method: The Smn HTRF (homogeneous time resolved fluorescence) assay is used to quantify the level of Smn protein in SMA patient fibroblast cells treated with test compounds.
Cells are thawed and cultured in DMEM-10% FBS for 72 hours. Cells are trypsinized, counted and re-suspended to a concentration of 25,000 cells/mL in DMEM-10% FBS. The cell suspension is plated at 5,000 cells per well in a 96 well microtiter plate and incubated for 3 to 5 hours. […] Test compounds are serially diluted 3.16-fold in 100% DMSO to generate a 7-point concentration curve. 1 μL of test compound solution is transferred to cell-containing wells and cells are incubated for 48 hours in a cell culture incubator (37° C., 5% CO2, 100% relative humidity). Triplicate samples are set up for each test compound concentration. After 48 hours, the supernatant is removed from the wells and 25 μL of the RIPA lysis buffer, containing protease inhibitors, is added to the wells and incubated with shaking at room temperature for 1 hour. 25 μL of the diluent is added and then 35 μL of the resulting lysate is transferred to a 384-well plate, where each well contains 5 μL of the antibody solution (1:100 dilution of anti-SMN d2 and anti-SMN kryptate in SMN reconstitution buffer). The plate is centrifuged for 1 minute to bring the solution to the bottom of the wells, then incubated overnight at room temperature. Fluorescence for each well of the plate at 665 nm and 620 nm is measured on an EnVision multilabel plate reader (Perkin-Elmer).
The normalized fluorescence signal is calculated for each sample, Blank and vehicle control well by dividing the signal at 665 nm by the signal at 620 nm. Normalizing the signal accounts for possible fluorescence quenching due to the matrix effect of the lysate. The ΔF value (a measurement of Smn protein abundance as a percent value) for each sample well is calculated by subtracting the normalized average fluorescence for the Blank control wells from the normalized fluorescence for each sample well, then dividing this difference by the normalized average fluorescence for the Blank control wells and multiplying the resulting value by 100. The ΔF value for each sample well represents the Smn protein abundance from test compound-treated samples. The ΔF value for each sample well is divided by the ΔF value for the vehicle control wells to calculate the fold increase in Smn protein abundance relative to the vehicle control.

[1] = system: SMN2 minigene mRNA (SMN2-A minigene construct); assay: SMN2 minigene mRNA splicing RT-qPCR assay in cultured cells; type: cell-based, human; details: Homo sapiens, HEK293-H; HEK293H cells stably transfected with SMN2-A minigene, 24 hours, 7-point concentration data; concentration giving 1.5-fold SMN2 full length mRNA relative to vehicle-treated cells; read-out: EC1.5x for production of full length SMN2 mRNA
Method: The reverse transcription-quantitative PCR-based (RT-qPCR) assay is used to quantify the level of the full length SMN2 minigene mRNA containing SMN2 exon 7 in a HEK293H cell line stably transfected with said minigene and treated with a test compound.
HEK293H cells stably transfected with the SMN2-A minigene construct described above (10,000 cells/well) are seeded in 200 μL of cell culture medium (DMEM plus 10% FBS, with 200 μg/mL hygromycin) in 96-well flat-bottom plates and the plate is immediately swirled to ensure proper dispersal of cells, forming an even monolayer of cells. Cells are allowed to attach for at least 4-6 hours. Test compounds are serially diluted 3.16-fold in 100% DMSO to generate a 7-point concentration curve. A solution of test compound (1 μL, 200× in DMSO) is added to each cell-containing well and the plate is incubated for 24 hours in a cell culture incubator (37° C., 5% CO2, 100% relative humidity). Two replicates are prepared for each test compound concentration. The cells are then lysed in Cells-To-Ct lysis buffer and the lysate is stored at −80° C.
Primer SMN Forward A (SEQ ID NO. 1) hybridizes to a nucleotide sequence in exon 7 (nucleotide 22 to nucleotide 40), primer SMN Reverse A (SEQ ID NO. 2) hybridizes to a nucleotide sequence in the coding sequence of Firefly luciferase, SMN Probe A (SEQ ID NO. 3) hybridizes to a nucleotide sequence in exon 7 (nucleotide 50 to nucleotide 54) and exon 8 (nucleotide 1 to nucleotide 21). The combination of these three oligonucleotides detects only SMN1 or SMN2 minigenes (RT-qPCR) and will not detect endogenous SMN1 or SMN2 genes.
The SMN forward and reverse primers are used at final concentrations of 0.4 μM. The SMN probe is used at a final concentration of 0.15 μM. The GAPDH primers are used at final concentrations of 0.2 μM and the probe at 0.15 μM.
The SMN2-minigene GAPDH mix (15 μL total volume) is prepared by combining 7.5 μL of 2×RT-PCR buffer, 0.4 μL of 25×RT-PCR enzyme mix, 0.75 μL of 20×GAPDH primer-probe mix, 4.0075 μL of water, 2 μL of 10-fold diluted cell lysate, 0.06 μL of 100 μM SMN forward primer, 0.06 μL of 100 μM SMN reverse primer, and 0.225 μL of 100 μM SMN probe.
PCR is carried out at the following temperatures for the indicated time: Step 1: 48° C. (15 min); Step 2: 95° C. (10 min); Step 3: 95° C. (15 sec); Step 4: 60° C. (1 min); then repeat Steps 3 and 4 for a total of 40 cycles.
Each reaction mixture contains both SMN2-A minigene and GAPDH primers/probe sets (multiplex design), allowing simultaneous measurement of the levels of two transcripts.
Two SMN spliced products are generated from the SMN2 minigene. The first spliced product containing exon 7, corresponding to SMN2 full length mRNA, is referred to herein using the term “SMN2 minigene FL.” The second spliced product lacking exon 7 is referred to herein using the term “SMN2 minigene Δ7.”
The increase of SMN2 minigene FL mRNA relative to that in cells treated with vehicle control is determined from real-time PCR data using a modified ΔΔCt method (as described in Livak and Schmittgen, Methods, 2001, 25:402-8). The amplification efficiency (E) is calculated from the slope of the amplification curve for SMN2 minigene FL and GAPDH individually. The abundances of SMN2 minigene FL and GAPDH are then calculated as (1+E)^−Ct, where Ct is the threshold value for each amplicon. The abundance of SMN2 minigene FL is normalized to GAPDH abundance. The normalized SMN2 minigene FL abundance from test compound-treated samples is then divided by normalized SMN2 minigene FL abundance from vehicle-treated cells to determine the level of SMN2 FL mRNA relative to vehicle control.

melting point | SMILES | EC1.5x for Smn protein expression (Smn protein) | maximum fold (Fold) increase of Smn protein (Smn protein) | EC (1.5-fold) [1]
258 to 260 °C | O=c1oc2nc(N3CCNCC3)ccc2cc1-c1nc2ccccc2s1 [Cpd 1, 3-(1,3-benzothiazol-2-yl)-7-(piperazin-1-yl)-2H-pyrano[2,3-b]pyridin-2-one] | *** (an EC1.5× between >0.3 μM and ≦1 μM is indicated by three stars (***)) | *** (a fold increase between >1.35 and ≦1.5 is indicated by three stars (***)) | 0.1 to 0.3 µM
247 to 250 °C | CN1CCN(c2ccc3cc(-c4nc5ccccc5s4)c(=O)oc3n2)CC1 [Cpd 3, 3-(1,3-benzothiazol-2-yl)-7-(4-methylpiperazin-1-yl)-2H-pyrano[2,3-b]pyridin-2-one] | * (An EC1.5× for Smn protein expression between >3 μM and ≦10 μM is indicated by one star (*)) | *** (a fold increase between >1.35 and ≦1.5 is indicated by three stars (***)) | 0.3 to 1 µM
262 to 266 °C | O=c1oc2nc(N3CCN(Cc4ccccc4O)CC3)ccc2cc1-c1nc2c(Cl)cccc2s1 [Cpd 6, 3-(4-chloro-1,3-benzothiazol-2-yl)-7-[4-(2-hydroxybenzyl)piperazin-1-yl]-2H-pyrano[2,3-b]pyridin-2-one] | – | ** (a fold increase between >1.2 and ≦1.35 is indicated by two stars (**)) | 3 to 30 µM
266 to 270 °C | Cl.O=c1oc2cc(N3CCNCC3)ncc2cc1-c1nc2c(Cl)cccc2s1 [Cpd 9, 3-(4-chloro-1,3-benzothiazol-2-yl)-7-(piperazin-1-yl)-2H-pyrano[3,2-c]pyridin-2-one hydrochloride] | – | * (A maximum fold increase ≦1.2 is indicated by one star (*)) | 0.1 to 0.3 µM
258 to 262 °C | O=c1oc2nc(N3CCN(CCO)CC3)ccc2cc1-c1nc2c(Cl)cccc2s1 [Cpd 10, 3-(4-chloro-1,3-benzothiazol-2-yl)-7-[4-(2-hydroxyethyl)piperazin-1-yl]-2H-pyrano[2,3-b]pyridin-2-one] | *** (an EC1.5× between >0.3 μM and ≦1 μM is indicated by three stars (***)) | *** (a fold increase between >1.35 and ≦1.5 is indicated by three stars (***)) | 0.3 to 1 µM
285 to 288 °C | CN1CCN(c2cc3oc(=O)c(-c4nc5c(Cl)cccc5s4)cc3cn2)CC1 [Cpd 11, 3-(4-chloro-1,3-benzothiazol-2-yl)-7-(4-methylpiperazin-1-yl)-2H-pyrano[3,2-c]pyridin-2-one] | – | * (A maximum fold increase ≦1.2 is indicated by one star (*)) | 0.3 to 1 µM
266 to 269 °C | CCN1CCN(c2ccc3cc(-c4nc5c(Cl)cccc5s4)c(=O)oc3n2)CC1 [Cpd 12, 3-(4-chloro-1,3-benzothiazol-2-yl)-7-(4-ethylpiperazin-1-yl)-2H-pyrano[2,3-b]pyridin-2-one] | – | *** (a fold increase between >1.35 and ≦1.5 is indicated by three stars (***)) | 0.3 to 1 µM

Further lines, the molecule ahead of its results:

SMILES | melting point | EC1.5x for Smn protein expression (Smn protein) | maximum fold (Fold) increase of Smn protein (Smn protein) | EC (1.5-fold) [1]
Cl.O=c1oc2nc(N3CCNCC3)ccc2cc1-c1cn2cccnc2n1 [Cpd 112, 3-(imidazo[1,2-a]pyrimidin-2-yl)-7-(piperazin-1-yl)-2H-pyrano[2,3-b]pyridin-2-one hydrochloride] | – | ** (an EC1.5× between >1 and ≦3 μM is indicated by two stars (**)) | *** (a fold increase between >1.35 and ≦1.5 is indicated by three stars (***)) | 0.1 to 0.3 µM
Cc1ccc2nc(-c3cc4ccc(N5C[C@@H]6C[C@H]5CN6)nc4oc3=O)cn2c1 [Cpd 124, 7-[(1S,4S)-2,5-diazabicyclo[2.2.1]hept-2-yl]-3-(6-methylimidazo[1,2-a]pyridin-2-yl)-2H-pyrano[2,3-b]pyridin-2-one] | – | *** (an EC1.5× between >0.3 μM and ≦1 μM is indicated by three stars (***)) | **** (a fold increase between >1.5 and ≦1.65 is indicated by four stars (****)) | 0.1 to 0.3 µM
Cc1cn2cc(-c3cc4ccc(N5C[C@@H]6C[C@H]5CN6)nc4oc3=O)nc2c(C)n1 [Cpd 135] | – | *** (an EC1.5× between >0.3 μM and ≦1 μM is indicated by three stars (***)) | ***** (a fold increase >1.65 is indicated by five stars (*****)) | ≤ 0.1 µM
Cc1cc(F)c2nc(-c3cc4ccc(N5C[C@@H]6C[C@H]5CN6)nc4oc3=O)cn2c1 [Cpd 136, 7-[(1S,4S)-2,5-diazabicyclo[2.2.1]hept-2-yl]-3-(8-fluoro-6-methylimidazo[1,2-a]pyridin-2-yl)-2H-pyrano[2,3-b]pyridin-2-one] | – | *** (an EC1.5× between >0.3 μM and ≦1 μM is indicated by three stars (***)) | *** (a fold increase between >1.35 and ≦1.5 is indicated by three stars (***)) | ≤ 0.1 µM
Cc1cn2cc(-c3cc4ccc(N5CCN[C@@H](C)C5)nc4oc3=O)nc2c(C)n1 [Cpd 146, 3-(6,8-dimethylimidazo[1,2-a]pyrazin-2-yl)-7-[(3S)-3-methylpiperazin-1-yl]-2H-pyrano[2,3-b]pyridin-2-one] | – | **** (an EC1.5×≦0.3 μM is indicated by four stars (****)) | **** (a fold increase between >1.5 and ≦1.65 is indicated by four stars (****)) | ≤ 0.1 µM
